US8604055B2, “Substituted benzylamino quinolines as cholesterol ester-transfer protein inhibitors” (Dr. Reddy's Laboratories Ltd., priority 2004, dated 2013)
pIC50: −log10 of the molar value.

Experiments:
[1] = biological target: T1, Recombinant CETP enzyme (Homo sapiens, UniProt P11597); assay: In vitro fluorescence-based CETP inhibition assay (BODIPY-CE transfer from donor to acceptor microemulsions); format: biochemical; settings: recombinant CETP 0.14 ng/μl; transfer of fluorescent cholesteryl ester monitored over 2 hours; vs DMSO controls
T1 construct: purchased Cardiovascular Targets
T1 sequence (P11597 18-493): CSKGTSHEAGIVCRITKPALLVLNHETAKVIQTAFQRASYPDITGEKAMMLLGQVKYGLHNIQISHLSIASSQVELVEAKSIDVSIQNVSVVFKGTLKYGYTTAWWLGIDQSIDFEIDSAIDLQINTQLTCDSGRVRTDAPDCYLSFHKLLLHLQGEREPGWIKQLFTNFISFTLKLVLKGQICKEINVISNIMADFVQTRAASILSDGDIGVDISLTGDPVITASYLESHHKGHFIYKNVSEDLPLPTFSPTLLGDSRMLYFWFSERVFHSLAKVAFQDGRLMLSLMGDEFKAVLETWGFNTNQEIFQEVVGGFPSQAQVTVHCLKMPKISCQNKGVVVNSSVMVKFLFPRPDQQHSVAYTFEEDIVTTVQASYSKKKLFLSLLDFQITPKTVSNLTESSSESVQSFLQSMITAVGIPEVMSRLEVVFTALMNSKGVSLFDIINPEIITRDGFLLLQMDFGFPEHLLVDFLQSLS
Method: An in vitro fluorescence-based assay to identify CETP inhibitors was developed from modifications of the protocols outlined in Bisgaier et al., J Lipid Res., 34(9): 1625-34 (1993) and Epps et al., Chem Phys Lipids., 77(1): 51-63 (1995). Acceptor and donor lipid microemulsions were prepared according to Bisgaier et al., 1993, except that the buffer was prepared with 0.67 ug/mL human HDL (Calbiochem). Donor microemulsions contained the fluorescent cholesteryl ester analog BODIPY-CE (Molecular Probes), characterized by excitation and emission maxima at 503 nm and 518 nm, respectively. The CETP-mediated transfer of fluorescent cholesteryl ester to acceptor particles was monitored over a 2-hour time period using the FAM filter set (excitation 492 nm, emission 516 nm) in an MX3000P fluorescent plate reader (Stratagene). Recombinant CETP enzyme (Cardiovascular Targets) was used at 0.14 ng/μl, final concentration, to achieve lipid transfer. CETP inhibition by compounds was compared to DMSO controlsand graphed as a percentage of the control CETP activity over 2 hours. The IC50 curves for CETP inhibition were generated from the activity profiles. Active compounds were also tested for CETP inhibition as above, but in the presence of 3% human serum albumin, fraction V (Calbiochem).

With Cc1nn(C)c2nc(N(CC3CCC3)CC3CC3)c(CN(Cc3cc(C(F)(F)F)cc(C(F)(F)F)c3)c3nnn(C)n3)cc12 [Example 5, (5-{[(3,5-bis-trifluoromethyl-benzyl)-(2-methyl-2H-tetrazole-5-yl)-amino]-methyl}-1,3-dimethyl-1H-pyrazolo[3,4-b]pyridin-6-yl)-cyclobutylmethyl-cyclopropylmethyl-amine] the pIC50 [1] was ≥ 6.00 and the melting point was 84 to 85 °C.
For CCN(CC(C)(C)C)c1nc2c(cc1CN(Cc1cc(C(F)(F)F)cc(C(F)(F)F)c1)c1nnn(C)n1)c(C)nn2C [Example 6, (5-{[(3,5-bis-trifluoromethyl-benzyl)-(2-methyl-2H-tetrazole-5-yl)-amino]-methyl}-1,3-dimethyl-1H-pyrazolo[3,4-b]pyridin-6-yl)-(2,2-dimethyl-propyl)-ethyl-amine], the pIC50 [1] was ≥ 6.00 and the melting point was 72 to 73 °C.
With CCN(c1nc2c(cc1CN(Cc1cc(C(F)(F)F)cc(C(F)(F)F)c1)c1nnn(C)n1)c(C)nn2C)C1CCCC1 [Example 8, (5-{[(3,5-bis-trifluoromethyl-benzyl)-(2-methyl-2H-tetrazole-5-yl)-amino]-methyl}-1,3-dimethyl-1H-pyrazolo[3,4-b]pyridin-6-yl)-cyclopentyl-ethyl-amine] the pIC50 [1] was ≥ 6.00 and the melting point was 43 to 44 °C.
In the case of CCN(CC1CCC1)c1nc2c(cnn2CC)cc1CN(Cc1cc(C(F)(F)F)cc(C(F)(F)F)c1)c1nnn(C)n1 [Example 15, (5-{[(3,5-bis-trifluoromethyl-benzyl)-(2-methyl-2H-tetrazol-5-yl)-amino]-methyl}-1-ethyl-1H-pyrazolo[3,4-b]-yridin-6-yl)-cyclobutylmethyl-ethyl-amine], the pIC50 [1] was ≥ 6.00 and the melting point was 76 to 77 °C.
In the case of CCN(CC1CCCC1)c1nc2c(cc1CN(Cc1cc(C(F)(F)F)cc(C(F)(F)F)c1)c1nc(C(F)(F)F)co1)c(C)nn2C [Example 22, (5-{[(3,5-bis-trifluoromethyl-benzyl)-(4-trifluoromethyl-oxazol-2-yl)-amino]-methyl}-1,3-dimethyl-1H-pyrazolo[3,4-b]-pyridin-6-yl)-cyclopentylmethyl-ethyl-amine], the pIC50 [1] was ≥ 6.00 and the melting point was 139 °C.
In the case of CCN(CC1CCCC1)c1nc2ccccc2cc1CN(Cc1cc(C(F)(F)F)cc(C(F)(F)F)c1)c1nnn(C)n1 [Example 52], the pIC50 [1] was ≥ 6.00 and the melting point was 97 °C.
In the case of CCN(CC1CCCC1)c1nc2ccccc2cc1CN(Cc1cc(C(F)(F)F)cc(C(F)(F)F)c1)c1nnnn1C [Example 53, (3-{[(3,5-bis-trifluoromethyl-benzyl)-(1-methyl-1H-tetrazol-5-yl)-amino]-methyl}-quinolin-2-yl)-cyclopentylmethyl-ethyl-amine], the pIC50 [1] was ≥ 5.30 and the melting point was 110 °C.
In the case of Cc1cccc2cc(CN(Cc3cc(C(F)(F)F)cc(C(F)(F)F)c3)c3nnn(C)n3)c(N(CC3CC3)CC3CC3)nc12 [Example 57], the pIC50 [1] was ≥ 6.00 and the melting point was 63 °C.
For CCN(CC1CCCC1)c1nc2ccccc2cc1CN(Cc1cc(C(F)(F)F)cc(C(F)(F)F)c1)c1nnc(C)o1 [Example 58, (3-{[(3,5-bis-trifluoromethyl-benzyl)-(5-methyl-[1,3,4]oxodiazol-2-yl)-amino]-methyl)-quinolin-2-yl)-cyclopentylmethyl-ethyl-amine], the pIC50 [1] was ≥ 5.30 and the melting point was 126 to 127 °C.
In the case of CCN(CC1CCCC1)c1nc2ccccc2cc1CN(Cc1cc(C(F)(F)F)cc(C(F)(F)F)c1)C(N)=O [Example 59, 1-(3,5 bistrifluoromethyl-benzyl)-1-[(2-cyclopentylmethyl-ethyl-amino)-quinoline-3-ylmethyl]-urea], the pIC50 [1] was ≥ 5.30 and the melting point was 92 to 94 °C.
With CCOC(=N)N(Cc1cc(C(F)(F)F)cc(C(F)(F)F)c1)Cc1cc2ccccc2nc1N(CC)CC1CCCC1 [Example 61] the pIC50 [1] was ≥ 5.30 and the melting point was 158 to 160 °C.
Work on CCN(CC1CCCC1)c1nc2ccccc2cc1CN(Cc1cc(C(F)(F)F)cc(C(F)(F)F)c1)C(N)=S [Example 62, 1-(3,5-bis-trifluoromethyl-benzyl)-1-[2-(cyclopentylmethyl-ethyl-amino)-quinolin-3-ylmethyl]-thiourea] yielded a melting point of 98 °C.
With Cc1cccc2cc(CN(Cc3cc(C(F)(F)F)cc(C(F)(F)F)c3)c3nnn(CCO)n3)c(N(CC3CC3)CC3CC3)nc12 [Example 93, 2-{5-[[2-(bis-cyclopropylmethyl-amino)-8-methyl-quinoline-3-ylmethyl]-(3,5-bistrifluoromethyl-benzyl)-amino]-tetrazol-2-yl}-ethanol] the pIC50 [1] was ≥ 6.00.
For CCN(CC1CCC1)c1nc2c(cnn2CC2CC2)cc1CN(Cc1cc(C(F)(F)F)cc(C(F)(F)F)c1)c1nnn(C)n1 [Example 101, (5-{[(3,5-bis-trifluoromethyl-benzyl)-(2-methyl-2H-tetrazol-5-yl)-amino]methyl}-1-cyclopropylmethyl-1H-pyrazolo[3,4-b]pyridin-6-yl)-cyclobutylmethyl-ethyl-amine], the pIC50 [1] was ≥ 6.00.
In the case of Cc1cccc2cc(CN(Cc3cc(C(F)(F)F)cc(C(F)(F)F)c3)c3ncc(N4CCOCC4)cn3)c(N(CC3CC3)CC3CC3)nc12 [Example 106, (3-{[(3,5-bis-trifluoromethyl-benzyl)-(5-morpholin-4-yl-pyrimidin-2-yl)-amino]-methyl}-8-methyl-quinolin-2-yl)-bis-cyclopropylmethyl-amine], the melting point was 123 to 124 °C.
In the case of Cc1cccc2cc(CN(Cc3cc(C(F)(F)F)cc(C(F)(F)F)c3)c3ccc(Br)cn3)c(N(CC3CC3)CC3CC3)nc12 [Example 111, (3-{[(3,5-bis-trifluoromethyl-benzyl)-(5-bromo-pyridin-2-yl)-amino]-methyl}-8-methyl-quinolin-2-yl)-bis-cyclopropylmethyl-amine], the pIC50 [1] was ≥ 6.00.
For Cc1cccc2cc(CN(Cc3cc(C(F)(F)F)cc(C(F)(F)F)c3)c3ncnc(Cl)n3)c(N(CC3CC3)CC3CC3)nc12 [Example 117, (3-{[(3,5-bis-trifluoromethyl-benzyl)-(4-chloro-[1,3,5]triazin-2-yl)-amino]-methyl}-8-methyl-quinolin-2-yl)-bis-cyclopropylmethyl-amine], the pIC50 [1] was ≥ 6.00.
CCOC(=O)c1c(CN(Cc2cc(C(F)(F)F)cc(C(F)(F)F)c2)c2nnn(C)n2)c2ccccc2n1C [Example 125, 3-{[(3,5-bis-trifluoromethyl-benzyl)-(2-methyl-2H-tetrazol-5-yl)-amino]-methyl}-1-methyl-1H-indole-2-carboxylic acid ethyl ester] showed a melting point of 83 °C.
In the case of CCOC(=O)c1c(CN(Cc2cc(C(F)(F)F)cc(C(F)(F)F)c2)c2nnn(C)n2)c2ccccc2n1C(=O)C1CCCC1 [Example 127, 3-{[(3,5-bis-trifluoromethyl-benzyl)-(2-methyl-2H-tetrazol-5-yl)-amino]-methyl}-1-cyclopentanecarbonyl-1H-indole-2-carboxylic acid ethyl ester], the pIC50 [1] was ≥ 6.00.
Work on CCCSc1nc2c(C)cccc2cc1CN(Cc1cc(C(F)(F)F)cc(C(F)(F)F)c1)C(=O)OCC [Example 135, (3,5-bis-trifluoromethyl-benzyl)-(8-methyl-2-propylsulfanyl-quinolin-3-ylmethyl)-carbamic acid ethyl ester] yielded a melting point of 42 °C.
In the case of CCCS(=O)(=O)c1nc2c(C)cccc2cc1CN(Cc1cc(C(F)(F)F)cc(C(F)(F)F)c1)C(=O)OCC [Example 136, (3,5-bis-trifluoromethyl-benzyl)-[8-methyl-2-(propane-1-sulfonyl)-quinolin-3-ylmethyl]-carbamic acid ethyl ester], the melting point was 98 °C.
CCC[S+]([O-])c1nc2c(C)cccc2cc1CN(Cc1cc(C(F)(F)F)cc(C(F)(F)F)c1)C(=O)OCC (stereo not drawn) [Example 137, (3,5-bis-trifluoromethyl-benzyl)-[8-methyl-2-(propane-1-sulfinyl)-quinolin-3-ylmethyl]-carbamic acid ethyl ester] showed a melting point of 86 °C.
